According to publication PMC7613998, “Development of selective inhibitors of phosphatidylinositol 3-kinase C2α” (Nature Chemical Biology, 2022):

Key:
Assay in all cases: biochemical
Set-up in all cases: SelectScreen Z'-LYTE purified kinase panel, per cent inhibition, mean of two points
[1] = molecular target: T1, AXL (Homo sapiens, UniProt P30530); settings: (μM)=Km app
T1 sequence (P30530 1-894): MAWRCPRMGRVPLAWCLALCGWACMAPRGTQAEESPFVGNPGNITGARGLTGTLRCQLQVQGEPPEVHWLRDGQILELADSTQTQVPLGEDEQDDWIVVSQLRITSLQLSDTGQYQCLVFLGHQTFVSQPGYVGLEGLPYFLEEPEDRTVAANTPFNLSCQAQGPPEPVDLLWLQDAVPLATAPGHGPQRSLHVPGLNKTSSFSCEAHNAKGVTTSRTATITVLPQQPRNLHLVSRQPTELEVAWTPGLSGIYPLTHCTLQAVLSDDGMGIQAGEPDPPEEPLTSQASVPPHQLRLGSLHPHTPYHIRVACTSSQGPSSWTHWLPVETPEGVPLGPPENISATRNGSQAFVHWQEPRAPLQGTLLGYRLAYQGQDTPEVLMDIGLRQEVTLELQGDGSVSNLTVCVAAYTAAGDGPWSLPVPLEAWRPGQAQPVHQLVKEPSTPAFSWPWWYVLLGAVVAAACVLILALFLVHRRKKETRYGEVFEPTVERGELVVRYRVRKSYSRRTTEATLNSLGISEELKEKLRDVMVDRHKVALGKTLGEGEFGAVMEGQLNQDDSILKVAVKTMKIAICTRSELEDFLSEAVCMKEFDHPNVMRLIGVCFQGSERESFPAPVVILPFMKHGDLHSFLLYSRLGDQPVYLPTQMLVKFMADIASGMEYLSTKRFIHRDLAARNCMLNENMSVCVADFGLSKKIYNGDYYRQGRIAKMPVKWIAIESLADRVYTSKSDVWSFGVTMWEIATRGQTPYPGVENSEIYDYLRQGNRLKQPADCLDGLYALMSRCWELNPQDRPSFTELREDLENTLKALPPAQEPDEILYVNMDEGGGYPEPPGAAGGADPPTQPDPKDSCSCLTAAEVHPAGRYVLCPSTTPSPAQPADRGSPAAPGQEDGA

[2] = molecular target: FGFR3 (Homo sapiens, UniProt P22607); settings: (μM)=Km app
[3] = molecular target: T2, AURKA (Aurora A) (Homo sapiens, UniProt O14965); settings: (μM)=Km app
T2 sequence (O14965 1-403): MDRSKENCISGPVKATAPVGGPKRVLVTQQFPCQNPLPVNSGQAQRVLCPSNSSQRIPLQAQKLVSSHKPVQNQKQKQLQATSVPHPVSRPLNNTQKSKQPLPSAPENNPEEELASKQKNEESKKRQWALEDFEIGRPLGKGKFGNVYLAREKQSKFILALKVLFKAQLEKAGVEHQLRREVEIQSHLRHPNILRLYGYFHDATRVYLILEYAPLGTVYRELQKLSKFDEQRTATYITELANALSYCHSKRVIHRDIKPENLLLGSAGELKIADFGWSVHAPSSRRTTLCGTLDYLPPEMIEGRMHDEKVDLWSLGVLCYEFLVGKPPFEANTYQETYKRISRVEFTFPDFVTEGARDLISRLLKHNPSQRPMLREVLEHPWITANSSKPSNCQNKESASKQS

[4] = molecular target: PKN1 (PRK1) (Homo sapiens, UniProt Q16512); settings: (μM)=Km app
[5] = molecular target: MKNK1 (MNK1) (Homo sapiens, UniProt Q9BUB5); settings: (μM)=Km app
[6] = molecular target: PAK1 (Homo sapiens, UniProt Q13153); settings: (μM)=Km app
[7] = molecular target: AKT2 (PKB beta) (Homo sapiens, UniProt P31751); settings: (μM)=Km app
[8] = molecular target: CSF1R (FMS) (Homo sapiens, UniProt P07333); settings: (μM)=Km app
[9] = molecular target: MAP3K8 (COT) (Homo sapiens, UniProt P41279); settings: (μM)=100
[10] = molecular target: ALK (Homo sapiens, UniProt Q9UM73); settings: (μM)=Km app
[11] = molecular target: SYK (Homo sapiens, UniProt P43405); settings: (μM)=Km app
[12] = molecular target: EGFR (ErbB1) L858R (Homo sapiens, UniProt P00533, L858R); settings: (μM)=Km app
Chain of EGFR (ErbB1) L858R (P00533 whole entry L858R): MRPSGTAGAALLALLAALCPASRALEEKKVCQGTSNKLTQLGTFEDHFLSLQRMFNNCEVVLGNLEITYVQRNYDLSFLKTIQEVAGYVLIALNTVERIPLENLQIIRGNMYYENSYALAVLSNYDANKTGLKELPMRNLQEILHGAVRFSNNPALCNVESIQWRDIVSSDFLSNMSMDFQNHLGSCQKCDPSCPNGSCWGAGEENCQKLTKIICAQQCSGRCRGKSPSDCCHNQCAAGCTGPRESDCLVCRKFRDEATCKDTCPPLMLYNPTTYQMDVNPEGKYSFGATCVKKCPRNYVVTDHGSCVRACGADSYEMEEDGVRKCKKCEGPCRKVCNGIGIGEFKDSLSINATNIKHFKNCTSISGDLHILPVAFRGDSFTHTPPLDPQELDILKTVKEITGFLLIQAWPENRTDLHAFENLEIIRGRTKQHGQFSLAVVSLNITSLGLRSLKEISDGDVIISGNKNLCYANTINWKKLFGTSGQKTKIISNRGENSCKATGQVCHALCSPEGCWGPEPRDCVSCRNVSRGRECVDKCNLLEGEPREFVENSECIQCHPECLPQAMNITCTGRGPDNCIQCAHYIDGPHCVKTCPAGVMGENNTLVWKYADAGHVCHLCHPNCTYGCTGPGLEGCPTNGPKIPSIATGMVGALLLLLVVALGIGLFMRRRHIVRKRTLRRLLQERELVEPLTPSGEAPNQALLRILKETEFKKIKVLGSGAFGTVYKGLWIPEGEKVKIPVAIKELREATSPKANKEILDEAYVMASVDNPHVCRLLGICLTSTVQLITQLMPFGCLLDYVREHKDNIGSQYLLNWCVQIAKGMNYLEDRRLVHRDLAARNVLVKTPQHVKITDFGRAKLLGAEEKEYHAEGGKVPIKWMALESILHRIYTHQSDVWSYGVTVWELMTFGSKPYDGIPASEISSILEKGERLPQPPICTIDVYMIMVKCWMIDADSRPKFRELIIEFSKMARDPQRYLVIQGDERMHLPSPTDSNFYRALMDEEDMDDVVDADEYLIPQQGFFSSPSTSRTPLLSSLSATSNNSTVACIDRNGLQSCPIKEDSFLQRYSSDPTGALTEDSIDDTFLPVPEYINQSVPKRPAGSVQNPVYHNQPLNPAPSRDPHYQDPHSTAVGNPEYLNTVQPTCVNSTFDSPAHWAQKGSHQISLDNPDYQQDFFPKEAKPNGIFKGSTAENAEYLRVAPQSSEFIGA

Chain of PAK1 (Q13153 whole entry): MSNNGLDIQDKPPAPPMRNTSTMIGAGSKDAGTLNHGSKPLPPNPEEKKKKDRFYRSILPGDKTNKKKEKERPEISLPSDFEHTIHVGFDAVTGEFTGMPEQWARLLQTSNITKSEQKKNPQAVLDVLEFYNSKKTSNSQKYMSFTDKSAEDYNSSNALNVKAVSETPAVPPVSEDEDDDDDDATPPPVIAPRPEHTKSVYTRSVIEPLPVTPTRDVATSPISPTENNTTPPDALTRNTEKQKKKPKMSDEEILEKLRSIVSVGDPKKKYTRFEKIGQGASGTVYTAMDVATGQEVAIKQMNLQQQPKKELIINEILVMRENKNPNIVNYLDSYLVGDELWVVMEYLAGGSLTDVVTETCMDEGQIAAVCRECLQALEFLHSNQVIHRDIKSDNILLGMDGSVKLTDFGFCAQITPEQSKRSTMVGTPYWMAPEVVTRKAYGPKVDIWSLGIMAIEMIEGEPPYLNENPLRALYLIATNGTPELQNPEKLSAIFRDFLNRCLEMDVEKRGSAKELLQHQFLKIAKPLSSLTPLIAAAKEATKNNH
Chain of CSF1R (FMS) (P07333 whole entry): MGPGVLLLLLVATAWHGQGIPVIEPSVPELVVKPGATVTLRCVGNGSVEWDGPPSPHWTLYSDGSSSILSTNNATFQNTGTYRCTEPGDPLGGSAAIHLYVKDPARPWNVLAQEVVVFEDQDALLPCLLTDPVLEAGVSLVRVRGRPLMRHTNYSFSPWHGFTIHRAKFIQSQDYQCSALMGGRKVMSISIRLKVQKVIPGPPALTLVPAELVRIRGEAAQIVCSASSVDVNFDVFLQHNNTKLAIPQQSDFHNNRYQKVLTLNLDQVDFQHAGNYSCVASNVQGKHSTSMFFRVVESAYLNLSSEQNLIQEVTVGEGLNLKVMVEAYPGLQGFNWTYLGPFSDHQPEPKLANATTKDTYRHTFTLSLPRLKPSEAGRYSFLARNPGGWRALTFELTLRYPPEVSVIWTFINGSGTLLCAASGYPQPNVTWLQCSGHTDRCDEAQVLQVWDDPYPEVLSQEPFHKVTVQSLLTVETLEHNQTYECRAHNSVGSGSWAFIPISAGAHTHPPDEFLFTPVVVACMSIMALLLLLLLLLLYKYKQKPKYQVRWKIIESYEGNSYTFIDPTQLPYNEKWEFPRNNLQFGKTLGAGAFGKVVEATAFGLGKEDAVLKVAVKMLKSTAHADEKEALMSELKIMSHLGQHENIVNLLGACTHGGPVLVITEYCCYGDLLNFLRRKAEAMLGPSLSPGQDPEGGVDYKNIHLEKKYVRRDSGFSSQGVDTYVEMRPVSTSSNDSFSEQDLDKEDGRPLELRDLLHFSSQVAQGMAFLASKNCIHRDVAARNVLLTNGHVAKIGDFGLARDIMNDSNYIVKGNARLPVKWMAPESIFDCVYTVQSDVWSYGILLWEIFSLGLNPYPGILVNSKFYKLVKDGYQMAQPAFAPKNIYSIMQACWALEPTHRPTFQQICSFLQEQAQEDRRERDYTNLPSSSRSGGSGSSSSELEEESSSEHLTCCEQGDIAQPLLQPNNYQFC
Chain of FGFR3 (P22607 whole entry): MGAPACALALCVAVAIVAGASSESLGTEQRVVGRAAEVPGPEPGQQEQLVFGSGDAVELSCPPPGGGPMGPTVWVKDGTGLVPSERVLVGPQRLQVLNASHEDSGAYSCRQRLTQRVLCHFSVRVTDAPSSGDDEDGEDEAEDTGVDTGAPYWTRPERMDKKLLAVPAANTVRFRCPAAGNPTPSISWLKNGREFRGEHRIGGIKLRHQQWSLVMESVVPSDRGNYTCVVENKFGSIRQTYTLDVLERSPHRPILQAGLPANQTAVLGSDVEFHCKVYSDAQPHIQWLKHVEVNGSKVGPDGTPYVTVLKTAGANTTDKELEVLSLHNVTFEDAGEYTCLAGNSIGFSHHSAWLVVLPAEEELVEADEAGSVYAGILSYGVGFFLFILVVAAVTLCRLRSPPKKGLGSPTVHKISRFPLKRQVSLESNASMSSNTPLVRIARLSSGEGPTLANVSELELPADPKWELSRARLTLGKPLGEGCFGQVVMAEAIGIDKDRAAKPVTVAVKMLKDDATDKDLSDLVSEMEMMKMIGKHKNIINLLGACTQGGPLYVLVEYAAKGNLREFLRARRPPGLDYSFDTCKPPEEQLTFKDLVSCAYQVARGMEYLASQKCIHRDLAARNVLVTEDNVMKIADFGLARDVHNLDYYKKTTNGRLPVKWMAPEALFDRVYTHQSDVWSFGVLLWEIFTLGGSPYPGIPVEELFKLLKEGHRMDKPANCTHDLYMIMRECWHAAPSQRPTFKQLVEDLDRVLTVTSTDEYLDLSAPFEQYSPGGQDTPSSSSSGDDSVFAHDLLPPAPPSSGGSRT
Chain of AKT2 (PKB beta) (P31751 whole entry): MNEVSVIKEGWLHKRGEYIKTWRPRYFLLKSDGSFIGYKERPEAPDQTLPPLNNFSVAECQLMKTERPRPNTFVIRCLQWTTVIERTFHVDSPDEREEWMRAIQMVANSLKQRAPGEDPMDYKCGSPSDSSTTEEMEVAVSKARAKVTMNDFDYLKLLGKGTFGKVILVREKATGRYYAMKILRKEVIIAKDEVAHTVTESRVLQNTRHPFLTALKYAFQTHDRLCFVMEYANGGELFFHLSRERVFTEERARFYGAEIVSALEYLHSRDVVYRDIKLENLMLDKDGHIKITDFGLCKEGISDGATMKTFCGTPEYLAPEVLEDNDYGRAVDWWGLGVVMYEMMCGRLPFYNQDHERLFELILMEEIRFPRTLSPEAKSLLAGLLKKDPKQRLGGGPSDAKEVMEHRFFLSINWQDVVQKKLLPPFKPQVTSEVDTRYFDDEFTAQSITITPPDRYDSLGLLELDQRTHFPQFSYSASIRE
Chain of MAP3K8 (COT) (P41279 whole entry): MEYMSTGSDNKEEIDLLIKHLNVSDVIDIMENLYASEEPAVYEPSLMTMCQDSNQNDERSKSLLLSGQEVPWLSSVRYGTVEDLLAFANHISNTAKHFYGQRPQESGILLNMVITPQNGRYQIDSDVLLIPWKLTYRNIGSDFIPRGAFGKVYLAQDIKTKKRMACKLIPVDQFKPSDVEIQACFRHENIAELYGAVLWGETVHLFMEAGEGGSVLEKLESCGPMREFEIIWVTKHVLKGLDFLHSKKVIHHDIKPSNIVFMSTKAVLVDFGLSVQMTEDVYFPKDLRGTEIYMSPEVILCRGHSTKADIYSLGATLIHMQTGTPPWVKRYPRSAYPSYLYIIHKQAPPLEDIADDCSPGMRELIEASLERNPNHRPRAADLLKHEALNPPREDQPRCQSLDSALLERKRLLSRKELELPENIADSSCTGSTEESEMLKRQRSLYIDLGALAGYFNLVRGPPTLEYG
Chain of MKNK1 (MNK1) (Q9BUB5 whole entry): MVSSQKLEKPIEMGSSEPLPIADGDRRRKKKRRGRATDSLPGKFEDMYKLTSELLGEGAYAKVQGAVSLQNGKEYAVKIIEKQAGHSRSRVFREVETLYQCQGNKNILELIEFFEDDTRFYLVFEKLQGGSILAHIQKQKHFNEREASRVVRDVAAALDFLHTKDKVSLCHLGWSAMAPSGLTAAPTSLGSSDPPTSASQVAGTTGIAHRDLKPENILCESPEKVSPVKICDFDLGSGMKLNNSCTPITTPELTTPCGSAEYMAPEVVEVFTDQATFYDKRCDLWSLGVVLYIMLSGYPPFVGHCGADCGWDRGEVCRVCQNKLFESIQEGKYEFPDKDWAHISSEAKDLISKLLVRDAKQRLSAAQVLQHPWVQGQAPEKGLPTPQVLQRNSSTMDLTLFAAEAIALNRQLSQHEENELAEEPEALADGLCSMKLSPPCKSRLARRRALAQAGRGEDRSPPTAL

inhibition at 1 µM [1] | inhibition at 3 µM [1] | inhibition at 10 µM [1] | inhibition at 1 µM [2] | inhibition at 3 µM [2] | inhibition at 10 µM [2] | inhibition at 1 µM [3] | inhibition at 3 µM [3] | inhibition at 10 µM [3] | inhibition at 1 µM [4] | inhibition at 3 µM [4] | inhibition at 10 µM [4] | inhibition at 1 µM [5] | inhibition at 3 µM [5] | inhibition at 10 µM [5] | inhibition at 1 µM [6] | inhibition at 3 µM [6] | inhibition at 10 µM [6] | inhibition at 1 µM [7] | inhibition at 3 µM [7] | further results | SMILES
-3.88% | -5.8% | -2.92% | 7.72% | -7.09% | -15.3% | 0.058% | 0.515% | -0.231% | 8.46% | 1.84% | -4.65% | -10.5% | -9.2% | -14.3% | -5.17% | -2.58% | -1.88% | 4.3% | 3.38% | inhibition at 10 µM [7]: 4.53%; inhibition at 1 µM [8]: 12.1%; inhibition at 3 µM [8]: 7.54%; inhibition at 10 µM [8]: 7.66%; inhibition at 1 µM [9]: 1.68%; inhibition at 3 µM [9]: -2.27%; inhibition at 10 µM [9]: 4.32%; inhibition at 1 µM [10]: 8.08%; inhibition at 3 µM [10]: 8.57%; inhibition at 10 µM [10]: 8.82%; inhibition at 1 µM [11]: 2.84%; inhibition at 3 µM [11]: 2.83%; inhibition at 10 µM [11]: -0.59%; inhibition at 1 µM [12]: -0.259%; inhibition at 3 µM [12]: 2.85%; inhibition at 10 µM [12]: -1.14% | O=C(CSc1nc2nccnc2c(=O)n1CCc1ccccc1)Nc1nccs1 [compound 1, PITCOIN1]
-4.95% | -1.87% | -3.45% | -8.51% | 0.972% | 8.3% | 5.01% | 0.816% | 0.802% | 2.88% | -5.53% | 4.05% | -3.26% | -7.92% | 0.613% | 21.4% | -0.318% | 19.2% | 6.93% | 6.2% | inhibition at 10 µM [7]: 4.52%; inhibition at 1 µM [8]: 10.1%; inhibition at 3 µM [8]: 14%; inhibition at 10 µM [8]: 13.3%; inhibition at 1 µM [9]: 2.37%; inhibition at 3 µM [9]: 11.4%; inhibition at 10 µM [9]: 4.89%; inhibition at 1 µM [10]: 17.2%; inhibition at 3 µM [10]: 10.4%; inhibition at 10 µM [10]: 10.9%; inhibition at 1 µM [11]: 0.0373%; inhibition at 3 µM [11]: 3.51%; inhibition at 10 µM [11]: 6.6%; inhibition at 1 µM [12]: 1.72%; inhibition at 3 µM [12]: 5.21%; inhibition at 10 µM [12]: -1.6% | CS(=O)(=O)Nc1cccc(-c2csc(NC(=O)CSc3nc4nccnc4c(=O)n3CCc3ccccc3)n2)c1 [compound 3, PITCOIN3]
